Test results as given in the NIST ThermoML archive (doi:10.1021/je400529k).

Columns and labels:
[1] = xn = mol fraction of the nth substance listed; conditions: 101 kPa, Liquid; for viscosity: Capillary tube (Ostwald / Ubbelohde) method; for mass density: Vibrating tube method
[2] = refractive index (Na D-line) (dimensionless); xn = mol fraction of the nth substance listed; conditions: 101 kPa, Liquid, Standard Abbe refractometry

CCC1CCCCC1 [ethylcyclohexane] + C1C[C@@H]2[C@H]3CC[C@H](C3)[C@@H]2C1
Conditions | mass density, [1] [kg/m3] | refractive index, [2] | viscosity, [1] [mPa·s]
293.15 K, x2 = 0 | 788.02 | 1.4319 | 0.845
293.15 K, x2 = 0.0997 | 803.52 | 1.4378 | 0.941
293.15 K, x2 = 0.2006 | 818.96 | 1.4437 | 1.052
293.15 K, x2 = 0.3001 | 834.08 | 1.4494 | 1.189
293.15 K, x2 = 0.4003 | 849.15 | 1.4551 | 1.344
293.15 K, x2 = 0.5001 | 863.99 | 1.4605 | 1.514
293.15 K, x2 = 0.6011 | 878.81 | 1.4667 | 1.726
293.15 K, x2 = 0.7 | 893.21 | 1.4717 | 1.965
293.15 K, x2 = 0.8001 | 907.54 | 1.4769 | 2.251
293.15 K, x2 = 0.8996 | 921.66 | 1.4824 | 2.593
298.15 K, x2 = 0 | 784.01 | – | 0.791
298.15 K, x2 = 0.0997 | 799.47 | – | 0.878
298.15 K, x2 = 0.2006 | 814.95 | – | 0.979
298.15 K, x2 = 0.3001 | 830.07 | – | 1.104
298.15 K, x2 = 0.4003 | 845.18 | – | 1.243
298.15 K, x2 = 0.5001 | 860.01 | – | 1.396
298.15 K, x2 = 0.6011 | 874.85 | – | 1.586
298.15 K, x2 = 0.7 | 889.26 | – | 1.8
298.15 K, x2 = 0.8001 | 903.61 | – | 2.055
298.15 K, x2 = 0.8996 | 917.75 | – | 2.358
303.15 K, x2 = 0 | 779.98 | 1.4276 | 0.743
303.15 K, x2 = 0.0997 | 795.44 | 1.4334 | 0.822
303.15 K, x2 = 0.2006 | 810.94 | 1.4389 | 0.914
303.15 K, x2 = 0.3001 | 826.06 | 1.4446 | 1.028
303.15 K, x2 = 0.4003 | 841.18 | 1.4506 | 1.155
303.15 K, x2 = 0.5001 | 856.03 | 1.4559 | 1.293
303.15 K, x2 = 0.6011 | 870.9 | 1.4617 | 1.464
303.15 K, x2 = 0.7 | 885.3 | 1.4674 | 1.656
303.15 K, x2 = 0.8001 | 899.67 | 1.4724 | 1.884
303.15 K, x2 = 0.8996 | 913.82 | 1.4776 | 2.155
308.15 K, x2 = 0 | 775.93 | – | 0.7
308.15 K, x2 = 0.0997 | 791.4 | – | 0.772
308.15 K, x2 = 0.2006 | 806.91 | – | 0.856
308.15 K, x2 = 0.3001 | 822.04 | – | 0.96
308.15 K, x2 = 0.4003 | 837.18 | – | 1.076
308.15 K, x2 = 0.5001 | 852.03 | – | 1.202
308.15 K, x2 = 0.6011 | 866.92 | – | 1.356
308.15 K, x2 = 0.7 | 881.34 | – | 1.53
308.15 K, x2 = 0.8001 | 895.72 | – | 1.735
308.15 K, x2 = 0.8996 | 909.89 | – | 1.976
313.15 K, x2 = 0 | 771.86 | 1.4225 | 0.661
313.15 K, x2 = 0.0997 | 787.34 | 1.4286 | 0.727
313.15 K, x2 = 0.2006 | 802.87 | 1.4343 | 0.804
313.15 K, x2 = 0.3001 | 818 | 1.4401 | 0.9
313.15 K, x2 = 0.4003 | 833.14 | 1.4458 | 1.005
313.15 K, x2 = 0.5001 | 848.02 | 1.4514 | 1.12
313.15 K, x2 = 0.6011 | 862.92 | 1.4572 | 1.261
313.15 K, x2 = 0.7 | 877.36 | 1.4625 | 1.417
313.15 K, x2 = 0.8001 | 891.76 | 1.4679 | 1.602
313.15 K, x2 = 0.8996 | 905.95 | 1.4732 | 1.82
318.15 K, x2 = 0 | 767.78 | – | 0.626
318.15 K, x2 = 0.0997 | 783.25 | – | 0.687
318.15 K, x2 = 0.2006 | 798.78 | – | 0.758
318.15 K, x2 = 0.3001 | 813.96 | – | 0.845
318.15 K, x2 = 0.4003 | 829.08 | – | 0.942
318.15 K, x2 = 0.5001 | 843.99 | – | 1.047
318.15 K, x2 = 0.6011 | 858.88 | – | 1.175
318.15 K, x2 = 0.7 | 873.35 | – | 1.317
318.15 K, x2 = 0.8001 | 887.8 | – | 1.485
318.15 K, x2 = 0.8996 | 901.99 | – | 1.682
